Our source for the IC50 values is patent US20090118274A1, “MONOCYCLIC AMINOPROPYL TETRAHYDRO-PYRAZOLO-PYRIDINE MODULATORS OF CATHEPSIN S” (priority 2007, published 2009).

For this experiment, the target named is T1, Recombinant human cathepsin S (CatS) (Homo sapiens, UniProt P25774).
T1 construct: made in house
T1 sequence (P25774 115-331): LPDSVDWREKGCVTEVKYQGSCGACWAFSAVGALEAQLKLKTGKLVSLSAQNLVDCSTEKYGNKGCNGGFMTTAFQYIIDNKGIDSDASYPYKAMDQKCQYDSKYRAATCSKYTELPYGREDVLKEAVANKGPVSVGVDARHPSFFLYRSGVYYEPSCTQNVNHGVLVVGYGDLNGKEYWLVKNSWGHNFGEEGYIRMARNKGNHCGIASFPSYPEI
Briefly: Recombinant human cathepsin S (CatS) fluorogenic substrate inhibition assay. The format is biochemical. The conditions noted are these: average of results obtained; substrate Z-Valine-Valine-Arginine-AMC 10 μM, pH 5.0; read-out: CatS IC50. The procedure:
Recombinant human cathepsin S (CatS) was expressed in the baculovirus system and purified in one step with a thiopropyl-sepharose column. […] The assay is run in 150 mM sodium acetate pH 5.0 containing 1.5 mM DTT and 150 mM NaCl. […] Measurements are taken every min for 20 min. The rate is calculated from the slope of the increase in fluorescence and the percent inhibition is calculated from this.
By IC50 is commonly meant the concentration needed to halve the response being measured. As for `CS(=O)(=O)N1CCc2c(c(-c3ccc(C(F)(F)F)c(CNC(=O)C4CCCCCC4)c3)nn2CCCN2CCC3(CCNC3=O)CC2)C1` [Example 158, Cycloheptanecarboxylic acid 5-{5-methanesulfonyl-1-[3-(1-oxo-2,8-diaza-spiro[4.5]dec-8-yl)-propyl]-4,5,6,7-tetrahydro-1H-pyrazolo[4,3-c]pyridin-3-yl}-2-trifluoromethyl-benzylamide], the IC50 came to 280 nM.
In the case of `CS(=O)(=O)N1CCc2c(c(-c3ccc(C(F)(F)F)c(CNC(=O)c4ccc(F)cc4)c3)nn2CC(O)CN2CCCCC2)C1` (stereo not drawn) [Example 24, 4-Fluoro-N-{5-[1-(2-hydroxy-3-piperidin-1-yl-propyl)-5-methanesulfonyl-4,5,6,7-tetrahydro-1H-pyrazolo[4,3-c]pyridin-3-yl]-2-trifluoromethyl-benzyl}-benzamide] it was 250 nM; in that of `CC(=O)N(C)C1CCN(CC(O)Cn2nc(-c3ccc(C(F)(F)F)c(CNC(=O)CC(C)C)c3)c3c2CCN(S(C)(=O)=O)C3)C1` (stereo not drawn) [Example 279, N-[5-(1-{3-[3-(Acetyl-methyl-amino)-pyrrolidin-1-yl]-2-hydroxy-propyl}-5-methanesulfonyl-4,5,6,7-tetrahydro-1H-pyrazolo[4,3-c]pyridin-3-yl)-2-trifluoromethyl-benzyl]-3-methyl-butyramide], 240 nM; in that of `CS(=O)(=O)N1CCc2c(c(-c3ccc(C(F)(F)F)c(CNC(=O)c4ccc(Cl)c(Cl)c4)c3)nn2CC(O)CN2CCCC2)C1` (stereo not drawn) [Example 229, 3,4-Dichloro-N-{5-[1-(2-hydroxy-3-pyrrolidin-1-yl-propyl)-5-methanesulfonyl-4,5,6,7-tetrahydro-1H-pyrazolo[4,3-c]pyridin-3-yl]-2-trifluoromethyl-benzyl}-benzamide], 780 nM.
As to `CC(=O)Nc1cccc(C(=O)NCc2cc(-c3nn(CC(O)CN4CCCC4)c4c3CN(S(C)(=O)=O)CC4)ccc2C(F)(F)F)c1` (stereo not drawn) [Example 59, 3-Acetylamino-N-{5-[1-(2-hydroxy-3-pyrrolidin-1-yl-propyl)-5-methanesulfonyl-4,5,6,7-tetrahydro-1H-pyrazolo[4,3-c]pyridin-3-yl]-2-trifluoromethyl-benzyl}-benzamide], the IC50 amounted to 500 nM.
On to `CN(C)C(=O)CCc1cc(-c2nn(CCCN3CCOCC3)c3c2CN(S(C)(=O)=O)CC3)ccc1Cl` [Example 295, 3-{2-Chloro-5-[5-methanesulfonyl-1-(3-morpholin-4-yl-propyl)-4,5,6,7-tetrahydro-1H-pyrazolo[4,3-c]pyridin-3-yl]-phenyl}-N,N-dimethyl-propionamide], for which the IC50 stood at 4850 nM.
With `CS(=O)(=O)N1CCc2c(c(-c3ccc(Cl)c(COC(=O)c4ccccc4)c3)nn2CCCN2CCCC2)C1` [Example 70, Benzoic acid 2-chloro-5-[5-methanesulfonyl-1-(3-pyrrolidin-1-yl-propyl)-4,5,6,7-tetrahydro-1H-pyrazolo[4,3-c]pyridin-3-yl]-benzyl ester], the IC50 is 1850 nM.
Regarding `CS(=O)(=O)N1CCc2c(c(-c3ccc(Cl)c(CNC(=O)c4ccc(F)cc4)c3)nn2CC(O)CN2CCC(F)CC2)C1` (stereo not drawn) [Example 82, N-(2-Chloro-5-{1-[3-(4-fluoro-piperidin-1-yl)-2-hydroxy-propyl]-5-methanesulfonyl-4,5,6,7-tetrahydro-1H-pyrazolo[4,3-c]pyridin-3-yl}-benzyl)-4-fluoro-benzamide], the IC50 stood at 190 nM.
Under `CC(=O)NC1CCN(CC(O)Cn2nc(-c3ccc(C(F)(F)F)c(CNC(=O)c4ccc(F)cc4)c3)c3c2CCN(S(C)(=O)=O)C3)CC1` (stereo not drawn) [Example 140, N-(5-{1-[3-(4-Acetylamino-piperidin-1-yl)-2-hydroxy-propyl]-5-methanesulfonyl-4,5,6,7-tetrahydro-1H-pyrazolo[4,3-c]pyridin-3-yl}-2-trifluoromethyl-benzyl)-4-fluoro-benzamide] stands 50 nM.
